According to US4332820A, “Substituted benzonitriles having antiviral activity” (The Dow Chemical Company, priority 1980, dated 1982):
In brackets after ≈: the same amount, converted by molar mass.

What was measured:
rhinovirus type 5 (RV-5) = assay: Tissue culture antiviral testing, RV-5 (cytopathic effect, HeLa cells); format: cell-based; conditions: Enterovirus, HeLa cells, read-out: Lowest concentration of the compound necessary to cause a 50 percent reduction in cytopathic effect
rhinovirus type 2 (RV-2) = assay: Tissue culture antiviral testing, RV-2 (cytopathic effect, HeLa cells); format: cell-based; conditions: Enterovirus, HeLa cells, NA = not active at the standard test conditions, read-out: Lowest concentration of the compound necessary to cause a 50 percent reduction in cytopathic effect
[1] = test system: Coxsackie A21 virus (Cox A21); assay: Tissue culture antiviral testing, Cox A21 (cytopathic effect, HeLa cells); format: cell-based; conditions: HeLa cells, NA = not active at the standard test conditions, read-out: Lowest concentration of the compound necessary to cause a 50 percent reduction in cytopathic effect
[2] = test system: rhinovirus type 1A (RV-1A); assay: Tissue culture antiviral testing, RV-1A (cytopathic effect, HeLa cells); format: cell-based; conditions: Enterovirus, HeLa cells, NA = not active at the standard test conditions, read-out: Lowest concentration of the compound necessary to cause a 50 percent reduction in cytopathic effect
rhinovirus type 8 (RV-8) = assay: Tissue culture antiviral testing, RV-8 (cytopathic effect, HeLa cells); format: cell-based; conditions: Enterovirus, HeLa cells, read-out: Lowest concentration of the compound necessary to cause a 50 percent reduction in cytopathic effect
[3] = Cytotoxicity in tissue culture (HeLa monolayers); format: cell-based; conditions: human; HeLa cells; observed at 48 and 72 hours post-treatment; read-out: Cytotoxicity (concentration of the compound found to be toxic to the cell)
Coxsackie A21 virus = assay: Continuous Oral Feeding test in mice challenged with Coxsackie A21; format: in vivo; conditions: for X^2 (Continuous Oral Feeding, chi-square of deaths): 0.06 % in diet, 240 h, 0.06 % strength
Cox A21 = assay: Single Oral Dose test in mice challenged with Cox A21; format: in vivo, Swiss male mice; conditions: for X^2 (Single Oral Dose, chi-square of deaths vs virus control): 600 mg/kg, 3 h
rhinovirus type 8 = assay: Inhibition of multiplication, WI-38 cell culture tubes; format: cell-based; conditions: Enterovirus, 25 μg/ml, read-out: inhibition grade
rhinovirus type 56 = assay: as above; format: cell-based; conditions: Enterovirus, 25 μg/ml, read-out: inhibition grade
rhinovirus type 17 = assay: as above; format: cell-based; conditions: Enterovirus, 25 μg/ml, read-out: inhibition grade
rhinovirus type 68 = assay: as above; format: cell-based; conditions: Enterovirus, 25 μg/ml, read-out: inhibition grade
Coxsackie B2 = format: cell-based; conditions: enterovirus Coxsackie B2
rhinovirus type 21 = assay: Inhibition of multiplication, WI-38 cell culture tubes; format: cell-based; conditions: Enterovirus, 25 μg/ml, read-out: inhibition grade
Picornaviruses = assay: Antiviral activity against picornaviruses, overall (tissue culture and animal testing)
Procedure: Monolayered HeLa cells in 16 millimeter (mm) tissue culture dishes were treated with 1 ml of culture medium (Eagles medium supplemented with fetal calf serum) containing subject compound at an appropriate concentration or containing no compound at all. Culture mediums such as those described herein are more fully described in standard texts, as for example, Kuchler's Biochemical Methods in Cell Culture and Virology, Dowden, Hutchinson and Ross, Inc., Stroudsberg, Pa. (1977). Following treatment, cells were challenged with 0.05 ml of rhinovirus type 1A (RV-1A), rhinovirus type 2 (RV-2) or Coxsackie A21 virus (Cox A21) in culture medium. Some of the compounds were also tested against rhinovirus type 5 (RV-5), rhinovirus type 8 (RV-8) or rhinovirus type 64 (RV-64). Cell controls received no viruses.
In addition, some of the compounds were tested in animals utilizing the following procedure, hereinafter referred to as the "Single Oral Dose" test. […] Mice were observed daily for 7-10 days post-challenge and deaths recorded. […]
Some of the compounds were also tested in animals utilizing the following procedure, hereinafter referred to as the "Continuous Oral Feeding" test. […] Deaths in both control and experimental groups were recorded for the 10 days and the results analyzed by a chi-square test. […]

rhinovirus type 29 = assay: Inhibition of multiplication, WI-38 cell culture tubes; format: cell-based; conditions: Enterovirus, 25 μg/ml, read-out: inhibition grade
rhinovirus type 19 = assay: as above; format: cell-based; conditions: Enterovirus, 25 μg/ml, read-out: inhibition grade
[4] = test system: feline calici virus, unconfirmed; format: cell-based; conditions: at the test concentrations
rhinovirus type 60 = assay: Inhibition of multiplication, WI-38 cell culture tubes; format: cell-based; conditions: Enterovirus, 25 μg/ml, read-out: inhibition grade
influenza WSN = assay: Further tissue culture testing; format: cell-based; conditions: at the test concentrations
rhinovirus type 59 = assay: Inhibition of multiplication, WI-38 cell culture tubes; format: cell-based; conditions: Enterovirus, 25 μg/ml, read-out: inhibition grade
[5] = test system: Hank's (untyped) rhinovirus; assay: as above; format: cell-based; conditions: Enterovirus, 25 μg/ml, read-out: inhibition grade
rhinovirus type 58 = assay: as above; format: cell-based; conditions: Enterovirus, 25 μg/ml, read-out: inhibition grade
rhinovirus type 6 = assay: as above; format: cell-based; conditions: Enterovirus, 25 μg/ml, read-out: inhibition grade
rhinovirus type 10 = assay: as above; format: cell-based; conditions: Enterovirus, 25 μg/ml, read-out: inhibition grade
adenovirus (untyped) = format: cell-based; conditions: at the test concentrations
influenze PR 8 = format: cell-based; conditions: at the test concentrations
rhinovirus type 64 = assay: Inhibition of multiplication, WI-38 cell culture tubes; format: cell-based; conditions: Enterovirus, 25 μg/ml, read-out: inhibition grade
rhinovirus type 75 = assay: as above; format: cell-based; conditions: Enterovirus, 25 μg/ml, read-out: inhibition grade
Acute toxicity in rats = conditions: rat, in vivo
rhinovirus type 81 = assay: Inhibition of multiplication, WI-38 cell culture tubes; format: cell-based; conditions: Enterovirus, 25 μg/ml, read-out: inhibition grade
rhinovirus type 4 = assay: as above; format: cell-based; conditions: Enterovirus, 25 μg/ml, read-out: inhibition grade
[6] = test system: Herpes simplex virus type 1; format: cell-based; conditions: at the test concentrations
rhinovirus type 39 = assay: Inhibition of multiplication, WI-38 cell culture tubes; format: cell-based; conditions: Enterovirus, 25 μg/ml, read-out: inhibition grade
[7] = test system: parainfluenza NDV (Newcastle's disease virus); format: cell-based; conditions: at the test concentrations
influenza A = format: cell-based; conditions: at the test concentrations
rhinovirus type 13 = assay: Inhibition of multiplication, WI-38 cell culture tubes; format: cell-based; conditions: Enterovirus, 25 μg/ml, read-out: inhibition grade
parainfluenza 1 = format: cell-based; conditions: at the test concentrations
Coxsackie B4 = format: cell-based; conditions: enterovirus Coxsackie B4
[8] = test system: rhinovirus type 64 (RV-64); assay: Tissue culture antiviral testing, RV-64 (cytopathic effect, HeLa cells); format: cell-based; conditions: Enterovirus, HeLa cells, NA = not active at the standard test conditions, read-out: Lowest concentration of the compound necessary to cause a 50 percent reduction in cytopathic effect
[9] = Acute oral toxicity in beagle dogs; conditions: dog, in vivo
Text: Testing in beagle dogs indicated an acute oral toxicity of greater than 2 grams/kg.

rhinovirus type 74 = assay: Inhibition of multiplication, WI-38 cell culture tubes; format: cell-based; conditions: Enterovirus, 25 μg/ml, read-out: inhibition grade

Structure (SMILES): N#Cc1cc([N+](=O)[O-])ccc1Oc1ccc(Cl)cc1 [Example 4, 2-(4-Chlorophenoxy)-5-nitrobenzonitrile]
- EC50 (rhinovirus type 5 (RV-5)): < 0.3 µg/mL
- EC50 (rhinovirus type 2 (RV-2)): ≤ 0.625 µg/mL
- EC50 [1]: 0.625 µg/mL (≈ 2.28 µM)
- EC50 [2]: ≤ 0.625 µg/mL
- EC50 (rhinovirus type 8 (RV-8)): < 6 µg/mL
- MCC [3]: > 100 µg/mL
- X^2 (Continuous Oral Feeding, chi-square of deaths) (Coxsackie A21 virus): 10.61
- X^2 (Single Oral Dose, chi-square of deaths vs virus control) (Cox A21): 0.252

Structure (SMILES): N#Cc1cc([N+](=O)[O-])ccc1Oc1ccc(Cl)c(Cl)c1 [Example 1, 2-(3,4-Dichlorophenoxy)-5-nitrobenzonitrile]
- inhibition at 25 µg/mL (rhinovirus type 8): ≥ 75%
- inhibition at 25 µg/mL (rhinovirus type 56): ≥ 75%
- inhibition at 25 µg/mL (rhinovirus type 17): ≥ 75%
- inhibition at 25 µg/mL (rhinovirus type 68): ≥ 75%
- inhibitory activity (Coxsackie B2): displayed inhibitory activity
- inhibition at 25 µg/mL (rhinovirus type 21): ≥ 75%
- effectiveness against picornaviruses (Picornaviruses; general statement): particularly effective against Picornaviruses
- antiviral activity compared with 5-(3,4-dichlorophenoxy)-2-nitrobenzonitrile (Picornaviruses; standard tissue culture and animal testing): markedly greater antiviral activity
- inhibition at 25 µg/mL (rhinovirus type 29): ≥ 75%
- inhibition at 25 µg/mL (rhinovirus type 19): ≥ 75%
- EC50 (rhinovirus type 5 (RV-5)): 0.5 µg/mL (≈ 1.62 µM)
- effect on virus multiplication [4]: did not affect the multiplication
- EC50 (rhinovirus type 2 (RV-2)): 0.25 µg/mL (≈ 0.809 µM)
- EC50 [1]: 0.25 µg/mL (≈ 0.809 µM)
- inhibition at 25 µg/mL (rhinovirus type 60): ≥ 75%
- EC50 [2]: 0.5 µg/mL (≈ 1.62 µM)
- effect on virus multiplication (influenza WSN): did not affect the multiplication
- inhibition at 25 µg/mL (rhinovirus type 59): ≥ 75%
- inhibition at 25 µg/mL [5]: ≥ 75%
- inhibition at 25 µg/mL (rhinovirus type 58): ≥ 75%
- inhibition at 25 µg/mL (rhinovirus type 6): ≥ 75%
- inhibition at 25 µg/mL (rhinovirus type 10): ≥ 75%
- effect on virus multiplication (adenovirus (untyped)): did not affect the multiplication
- EC50 (rhinovirus type 8 (RV-8)): 0.25 µg/mL (≈ 0.809 µM)
- effect on virus multiplication (influenze PR 8): did not affect the multiplication
- inhibition at 25 µg/mL (rhinovirus type 64): ≥ 75%
- inhibition at 25 µg/mL (rhinovirus type 75): ≥ 75%
- LD50 (Acute toxicity in rats; ip, intraperitoneal, read-out: acute toxicity, intraperitoneal administration): > 2000 mg/kg
- LD50 (Acute toxicity in rats; oral, read-out: acute oral toxicity): ~5000 mg/kg
- inhibition at 25 µg/mL (rhinovirus type 81): ≥ 75%
- inhibition at 25 µg/mL (rhinovirus type 4): ≥ 75%
- effect on virus multiplication [6]: did not affect the multiplication
- inhibition at 25 µg/mL (rhinovirus type 39): ≥ 75%
- effect on virus multiplication [7]: did not affect the multiplication
- MCC [3]: > 100 µg/mL
- effect on virus multiplication (influenza A): did not affect the multiplication
- antiviral activity in the "Continuous Oral Feeding" test (Coxsackie A21 virus; in words, 95% confidence level): exhibited antiviral activity
- X^2 (Continuous Oral Feeding, chi-square of deaths) (Coxsackie A21 virus): 23.62
- antiviral activity in the "Single Oral Dose" test (Cox A21; in words, 95% confidence level): exhibited antiviral activity
- X^2 (Single Oral Dose, chi-square of deaths vs virus control) (Cox A21): 5.36
- inhibition at 25 µg/mL (rhinovirus type 13): ≥ 75%
- effect on virus multiplication (parainfluenza 1): did not affect the multiplication
- inhibitory activity (Coxsackie B4): displayed inhibitory activity
- EC50 [8]: 0.156 µg/mL (≈ 0.505 µM)
- LD50 [9]: > 2000 mg/kg
- inhibition at 25 µg/mL (rhinovirus type 74): ≥ 75%

Structure (SMILES): N#Cc1cc([N+](=O)[O-])ccc1Oc1ccc(Cl)cc1Cl [Example 2, 2-(2,4-Dichlorophenoxy)-5-nitrobenzonitrile]
- EC50 (rhinovirus type 5 (RV-5)): 2.5 µg/mL (≈ 8.09 µM)
- EC50 (rhinovirus type 2 (RV-2)): 0.625 µg/mL (≈ 2.02 µM)
- EC50 [1]: 1.25 µg/mL (≈ 4.04 µM)
- EC50 [2]: 0.625 µg/mL (≈ 2.02 µM)
- EC50 (rhinovirus type 8 (RV-8)): 2.5 µg/mL (≈ 8.09 µM)
- MCC [3]: > 100 µg/mL
- X^2 (Continuous Oral Feeding, chi-square of deaths) (Coxsackie A21 virus): 1.38
- X^2 (Single Oral Dose, chi-square of deaths vs virus control) (Cox A21): 3.659
